Tests used:
[1] = tested on: HCT-116 MTAP(−/−) deficient cells; assay: Inhibitory activity on proliferation of HCT-116 MTAP(−/−) deficient cells (Cell-Titer Glo, 8 days); assay type: cell-based; settings: Homo sapiens, HCT-116, 192 h, 8 days incubation
Description: Test 1: Compound's inhibitory activity on proliferation of HCT-116 MTAP(−/−) deficient cells. P Materials and Cells: HCT-116 MTAP(−/−) deficient cells obtained from Kyinno Bio (China); RPMI-1640 medium, fetal bovine serum, and penicillin-streptomycin purchased from Thermo Fisher Scientific (America); 384-well plates from PerkinElmer (America); Cell-Titer Glo assay kit from Promega (America).
Cell Culture: HCT116 MTAP(−/−) deficient cells were cultured in RPMI 1640 medium containing 10% fetal bovine serum and 1% penicillin-streptomycin at 37° C., 5% CO2. Only cells in logarithmic growth phase were used for experiments.
(§1) Cell Proliferation Inhibition Assay: The compound's inhibitory activity on HCT-116 MTAP(−/−) deficient cells was assessed using the Cell-Titer Glo assay kit. Adjusting cell concentration, 40 μL was seeded into a 384-well plate and cultured overnight at 37° C., 5% CO2. Each well received 40 nL of the compound, achieving concentrations from 0 to 10,000 nM (starting concentration 10,000 nM, 3-fold dilution, 10 points), with 0.1% DMSO. The cell plate was incubated for 8 days at 37° C., 5% CO2. Cell-Titer Glo reagent (40 μL) was added to measure cell viability.

[2] = tested on: HCT-116 MTAP wild-type cells; assay: Inhibitory activity on proliferation of HCT-116 MTAP wild-type cells (Cell-Titer Glo, 8 days); assay type: cell-based; settings: Homo sapiens, HCT-116, 192 h, 8 days incubation
Description: Test 2: Compound's inhibitory activity on proliferation of HCT-116 MTAP wild-type cells.
Materials and Cells: HCT-116 MTAP wild-type cells obtained from Kyinno Bio (China); RPMI-1640 medium, fetal bovine serum, and penicillin-streptomycin purchased from Thermo Fisher Scientific (America); 384-well plates from PerkinElmer (America); Cell-Titer Glo assay kit from Promega (America).
Cell Culture: HCT116 MTAP wild-type cells were cultured in RPMI 1640 medium containing 10% fetal bovine serum and 1% penicillin-streptomycin at 37° C., 5% CO2. Only cells in logarithmic growth phase were used for experiments.
as §1, with “MTAP wild-type” for “MTAP(−/−) deficient”

[3] = Mouse pharmacokinetic experiment; assay type: in vivo; settings: male, ICR mice, plasma
Description: II. Mouse Pharmacokinetic Experiment 1. Test Compounds
(§2) The compounds used in this experiment are specific embodiments of the present invention, with reference to compound AMG473 as an example from Amgen's patent WO 2022/169948A1, identified as example 473.
ICR male mice, N=3/group; sourced from Zhejiang Vital River Laboratory Animal Technology Co., Ltd.
3. Drug Preparation and Administration
(§3) Single oral (PO) administration to ICR mice: Compounds were dissolved in dimethyl sulfoxide, added to polyethylene glycol 400 and sterile water, and then adjusted to a clear solution with a small amount of 1 mol/L hydrochloric acid. After overnight fasting, the mice were orally gavaged with a dose of 10 mg/kg.
as §3, with “intravenous (IV)” for “oral (PO)”, “received tail vein injections” for “were orally gavaged”, “3” for “10”
Approximately 30 μL/time point blood samples were collected via the tail vein. Potassium ethylenediaminetetraacetate was used as an anticoagulant, and samples were centrifuged at 4000 g/min for 5 minutes at 4° C. within 1 hour. Blood sampling time points were 0.0833 (IV), 0.25, 0.5, 1, 2, 4, 6, 8, 24 hours. Samples were stored in a −20° C. freezer.
Plasma samples (30 μL, 10 μL sample+20 μL blank plasma) were mixed with 200 μL ice-cold acetonitrile containing internal standards. After vortexing for 30 seconds, samples were centrifuged at 4000 g/min for 20 minutes. One hundred microliters of the supernatant were transferred to a 96-well plate, followed by the addition of 200 μL ultrapure water. After vortexing for 30 seconds, 5 μL or 10 μL were injected into LC-MS/MS for analysis.

[4] = biological target: hERG ion channel (Homo sapiens, UniProt Q12809); assay: hERG ion channel inhibition experiment (manual patch clamp, HEK293 cells); assay type: cell-based; settings: HEK293 cells stably expressing hERG, whole-cell patch clamp, n=2
Description: III. hERG Ion Channel Inhibition Experiment
as §2
2. Cell Line and Cell Culture
Stably expressing hERG ion channel HEK293 cell line (Catalog: K1236) was purchased from Invitrogen. This cell line was cultured in a medium containing 85% DMEM, 10% dialyzed fetal bovine serum, 0.1 mM non-essential amino acid solution, 100 U/mL penicillin-streptomycin solution, 25 mM HEPES, 5 μg/mL blasticidin, and 400 μg/mL geneticin. When the cell density reached 40%˜80% of the culture dish area, digestion was performed using trypsin, and cells were passaged three times per week. Before the experiment, cells were cultured at a density of 5×10′ in 3.5 cm culture dishes, induced with […] Doxycycline for 48 hours. Subsequently, cells were digested and seeded onto slides for subsequent manual patch clamp experiments.)
3. Experimental Procedure
• 1) Place glass slides containing HEK293 cells in the perfusion chamber of the micro-manipulation station. • 2) Under an Olympus IX71 or IX73 inverted microscope, position suitable cells in the central field of view using a ×10 objective. Locate the tip of the glass electrode in the central field. Use the micromanipulator to lower the electrode while adjusting the coarse focus spiral to slowly approach the cell. • 3) When approaching the cell rapidly, switch to a ×40 objective for observation. Fine-tune the electrode approach using the micromanipulator to gradually reach the cell's surface. • 4) Apply negative pressure to establish 1GQ seal between the electrode tip and the cell membrane. • 5) Compensate for the transient capacitance current Cfast under voltage clamp mode. Then, repeat the brief negative pressure application for membrane rupture, ultimately reaching the whole-cell recording mode. • 6) Under voltage clamp at −60 mV, compensate for slow capacitance current Cslow, cell membrane capacitance (Cm), and input membrane resistance (Ra). • 7) Once the cell is stable, change the clamping voltage to −90 mV, set the sampling frequency to 20 kHz, and the filtering frequency to 10 kHz. Leak current detection conditions involve changing the clamping voltage to −80 mV for a duration of 500 ms. • 8) The hERG current testing method is as follows: Apply a 4.8-second depolarization command voltage to depolarize the membrane potential from −80 mV to +30 mV, then instantly apply a 5.2-second repolarization voltage to reduce the membrane potential to −50 mV to remove channel inactivation, allowing observation of the hERG tail current. The peak of the tail current represents the size of the hERG current. • 9) The hERG current […] is continuously recorded for 120 seconds before administration to assess the stability of the tested cells in producing hERG currents. Only stable cells within an acceptable range are eligible for subsequent compound testing. • 10) Testing the inhibitory effect of the test compound on hERG current: First, determine the baseline of hERG current obtained in extracellular fluid containing 0.1% DMSO. After maintaining stable hERG current for at least 5 minutes, sequentially perfuse the solution containing the test compound around the cells from low to high concentrations. After each perfusion, wait for about 5 minutes to allow the compound to act on the cells and simultaneously record hERG currents. Record the last 5 hERG current values after the recorded current stabilizes, and take their average as the final current value at a specific concentration. […] Meanwhile, positive compound dofetilide is synchronously detected before and after the end of the test drug experiment using the same patch clamp system to ensure the reliability and sensitivity of the entire detection system. The above test steps will be repeated on two separate test cells (n=2). 4. Data Analysis […]

Sequence of hERG ion channel (Q12809 whole entry): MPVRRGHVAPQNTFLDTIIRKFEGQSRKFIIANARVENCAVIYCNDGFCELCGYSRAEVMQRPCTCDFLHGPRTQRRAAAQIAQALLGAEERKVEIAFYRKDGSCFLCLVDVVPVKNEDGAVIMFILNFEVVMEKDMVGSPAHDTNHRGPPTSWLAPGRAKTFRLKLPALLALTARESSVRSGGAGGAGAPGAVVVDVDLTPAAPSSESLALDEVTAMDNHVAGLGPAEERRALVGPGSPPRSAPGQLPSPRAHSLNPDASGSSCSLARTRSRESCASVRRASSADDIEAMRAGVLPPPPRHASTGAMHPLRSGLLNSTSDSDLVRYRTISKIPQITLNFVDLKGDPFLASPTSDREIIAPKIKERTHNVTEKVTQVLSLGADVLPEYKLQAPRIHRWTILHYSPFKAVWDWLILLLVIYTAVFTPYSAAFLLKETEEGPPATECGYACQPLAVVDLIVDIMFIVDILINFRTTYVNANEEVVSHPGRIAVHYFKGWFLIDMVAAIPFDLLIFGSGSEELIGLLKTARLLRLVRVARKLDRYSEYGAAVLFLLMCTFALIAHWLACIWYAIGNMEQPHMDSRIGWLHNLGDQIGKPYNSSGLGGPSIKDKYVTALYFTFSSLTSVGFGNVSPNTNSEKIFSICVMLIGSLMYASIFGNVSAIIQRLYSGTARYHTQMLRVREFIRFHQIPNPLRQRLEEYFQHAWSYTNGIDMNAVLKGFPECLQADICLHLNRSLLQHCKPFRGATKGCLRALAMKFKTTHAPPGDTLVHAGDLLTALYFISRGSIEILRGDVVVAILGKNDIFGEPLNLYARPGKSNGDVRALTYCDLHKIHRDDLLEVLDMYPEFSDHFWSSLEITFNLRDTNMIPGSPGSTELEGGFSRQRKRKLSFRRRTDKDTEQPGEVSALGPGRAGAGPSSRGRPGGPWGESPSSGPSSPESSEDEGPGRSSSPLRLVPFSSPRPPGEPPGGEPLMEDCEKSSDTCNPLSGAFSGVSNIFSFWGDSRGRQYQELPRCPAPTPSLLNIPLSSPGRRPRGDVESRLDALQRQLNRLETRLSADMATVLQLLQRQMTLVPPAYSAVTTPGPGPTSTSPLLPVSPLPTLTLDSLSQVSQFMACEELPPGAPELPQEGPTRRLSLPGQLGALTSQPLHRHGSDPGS

CN(C(=O)c1ccc2nc(N)c3cncn3c2c1)[C@@H]1COc2cc(S(F)(F)(F)(F)F)ccc21 (single isomer, unassigned) [Example 104]
IC50 [1]: 0.0046 µM | IC50 [2]: 0.591 µM | AUC(0-t) ([3]; IV 3 mg/kg): 10.5 µg·h/mL | AUC(0-t) ([3]; PO 10 mg/kg): 26.5 µg·h/mL | half-life ([3]; IV 3 mg/kg): 6.1 h | half-life ([3]; PO 10 mg/kg): 5.02 h | bioavailability ([3]; PO 10 mg/kg vs IV 3 mg/kg, read-out: Bioavailability F): 74% | IC50 [4]: 1.51 µM

CN(C(=O)c1cc2c(cn1)nc(N)c1cncn12)[C@@H]1COc2cc(C(F)(F)F)ccc21 [Example 4, (S)-4-amino-N-methyl-N-(6-(trifluoromethyl)-2,3-dihydrobenzofuran-3-yl)imidazo[1,5-a] pyrido[3,4-e] pyrazine-8-carboxamide]
AUC(0-t) ([3]; IV 3 mg/kg): 8.09 µg·h/mL | AUC(0-t) ([3]; PO 10 mg/kg): 21 µg·h/mL | half-life ([3]; IV 3 mg/kg): 4.06 h | half-life ([3]; PO 10 mg/kg): 2.67 h | IC50 [4]: 5.29 µM

[2H]C([2H])([2H])N(C(=O)c1ccc2nc(N)c3cncn3c2c1)[C@@H]1COc2cc(C(F)(F)F)ccc21 [Example 16, (S)-4-amino-N-(methyl-d3)-N-(6-(trifluoromethyl)-2,3-dihydrobenzofuran-3-yl)imidazo[1,5-a] quinoxaline-8-carboxamide]
AUC(0-t) ([3]; IV 3 mg/kg): 9.71 µg·h/mL | AUC(0-t) ([3]; PO 10 mg/kg): 42.5 µg·h/mL | half-life ([3]; IV 3 mg/kg): 3.65 h | half-life ([3]; PO 10 mg/kg): 3.31 h | IC50 [4]: 2.3 µM

[2H]C([2H])([2H])N(C(=O)c1cc2c(cc1F)nc(N)c1cncn12)[C@@H]1COc2cc(C(F)(F)F)ccc21 [Example 41, (S)-4-amino-7-fluoro-N-(methyl-d3)-N-(6-(trifluoromethyl)-2,3-dihydrobenzofuran-3-yl)imidazo[1,5-a] quinoxaline-8-carboxamide]
AUC(0-t) ([3]; IV 3 mg/kg): 5.42 µg·h/mL | AUC(0-t) ([3]; PO 10 mg/kg): 46.3 µg·h/mL | half-life ([3]; IV 3 mg/kg): 4.3 h | half-life ([3]; PO 10 mg/kg): 4.12 h | IC50 [4]: 8.16 µM

CN(C(=O)c1ccc2nc(N)c3cncn3c2c1)[C@@H]1COc2cc(C(F)(F)F)ccc21 [Example 107, (S)-4-amino-N-methyl-N-(6-(trifluoromethyl)-2,3-dihydrobenzofuran-3-yl)imidazo[1,5-a] quinoxaline-8-carboxamide]
AUC(0-t) ([3]; IV 3 mg/kg): 11.2 µg·h/mL | AUC(0-t) ([3]; PO 10 mg/kg): 44.1 µg·h/mL | half-life ([3]; IV 3 mg/kg): 4.53 h | half-life ([3]; PO 10 mg/kg): 4.56 h | IC50 [4]: 4.5 µM

CN(C(=O)c1ccc2nc(N)c3cncn3c2c1)[C@@H]1COc2cc(C(F)(F)C(F)(F)F)ccc21 [Example 130, (S)-4-amino-N-methyl-N-(6-(perfluoroethyl)-2,3-dihydrobenzofuran-3-yl)imidazo[1,5-a] quinoxaline-8-carboxamide]
AUC(0-t) ([3]; IV 3 mg/kg): 10.8 µg·h/mL | AUC(0-t) ([3]; PO 10 mg/kg): 28.3 µg·h/mL | half-life ([3]; IV 3 mg/kg): 4.5 h | half-life ([3]; PO 10 mg/kg): 3.34 h | IC50 [4]: 1.36 µM

From patent publication US12173002B2, “PRMT5 inhibitors and methods of use” (SHANGHAI APEIRON THERAPEUTICS COMPANY LIMITED, priority 2022, dated 2024)
